From PubChem BioAssay AID2060900 (Molecular Pharmacology Branch, DTP, NCI, 2025)

Tested on: 521955-158-R2-J5-PDC complex spheroids, viability
Test: Anticancer human tumor 521955-158-R2-J5-PDC patient-derived pancreatic carcinoma cell line growth inhibition [RAS]
Conditions: for viability, T/C: stronger effect = lower value
Outline: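 Multi-cell-type spheroids: tumor cells plus HUVEC endothelial cells and mesenchymal stem cells. RAS-pathway inhibitors were combined with targeted agents, each dosed in half-log steps down from clinical Cmax, or from 10 microM when Cmax was unknown.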

[1] = curve of first compound, second compound 0.000949 µM
[2] = curve of first compound, second compound 0.003 µM
[3] = curve of first compound, second compound 0.00949 µM
[4] = curve of first compound, second compound 0.03 µM
[5] = curve of first compound, second compound 0.0949 µM
[6] = curve of first compound, second compound 0.3 µM
[7] = second compound 0.000949 µM, first compound 0.0316 µM
[8] = second compound 0.000949 µM, first compound 0.1 µM
[9] = second compound 0.000949 µM, first compound 0.316 µM
[10] = second compound 0.000949 µM, first compound 1 µM
[11] = second compound 0.000949 µM, first compound 3.16 µM
[12] = second compound 0.000949 µM, first compound 10 µM
[13] = second compound 0.003 µM, first compound 0.0316 µM
[14] = second compound 0.003 µM, first compound 0.1 µM
[15] = second compound 0.003 µM, first compound 0.316 µM
[16] = second compound 0.003 µM, first compound 1 µM
[17] = second compound 0.003 µM, first compound 3.16 µM
[18] = second compound 0.003 µM, first compound 10 µM
[19] = second compound 0.00949 µM, first compound 0.0316 µM
[20] = second compound 0.00949 µM, first compound 0.1 µM
[21] = second compound 0.00949 µM, first compound 0.316 µM
[22] = second compound 0.00949 µM, first compound 1 µM
[23] = second compound 0.00949 µM, first compound 3.16 µM
[24] = second compound 0.00949 µM, first compound 10 µM
[25] = second compound 0.03 µM, first compound 0.0316 µM
[26] = second compound 0.03 µM, first compound 0.1 µM
[27] = second compound 0.03 µM, first compound 0.316 µM
[28] = second compound 0.03 µM, first compound 1 µM
[29] = second compound 0.03 µM, first compound 3.16 µM
[30] = second compound 0.03 µM, first compound 10 µM
[31] = second compound 0.0949 µM, first compound 0.0316 µM
[32] = second compound 0.0949 µM, first compound 0.1 µM
[33] = second compound 0.0949 µM, first compound 0.316 µM
[34] = second compound 0.0949 µM, first compound 1 µM
[35] = second compound 0.0949 µM, first compound 3.16 µM
[36] = second compound 0.0949 µM, first compound 10 µM
[37] = second compound 0.3 µM, first compound 0.0316 µM
[38] = second compound 0.3 µM, first compound 0.1 µM
[39] = second compound 0.3 µM, first compound 0.316 µM
[40] = second compound 0.3 µM, first compound 1 µM
[41] = second compound 0.3 µM, first compound 3.16 µM
[42] = second compound 0.3 µM, first compound 10 µM
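Also: compound exposure lasted seven days before the viability read.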
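For viability, T/C in this document: spheroids also contain HUVEC endothelial cells and mesenchymal stem cells as stroma.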

## CC(C)NCC(C(=O)N1CCN(c2ncnc3c2C(C)CC3O)CC1)c1ccc(Cl)cc1 (stereo not drawn) + CCn1c(-c2cc(N3CCN(C)CC3)cnc2C(C)OC)c2c3cc(ccc31)-c1csc(n1)CC(NC(=O)C1CC1C)C(=O)N1CCCC(N1)C(=O)OCC(C)(C)C2
[1]
  IC50: < 31.6 nM
[2]
  IC50: < 31.6 nM
[3]
  IC50: < 31.6 nM
[4]
  IC50: < 31.6 nM
[5]
  IC50: < 31.6 nM
[6]
  IC50: < 31.6 nM
[7]
  viability, T/C: 33.8%
[8]
  viability, T/C: 38.8%
[9]
  viability, T/C: 35.5%
[10]
  viability, T/C: 23%
[11]
  viability, T/C: 15.5%
[12]
  viability, T/C: 18.1%
[13]
  viability, T/C: 41.8%
[14]
  viability, T/C: 37%
[15]
  viability, T/C: 36%
[16]
  viability, T/C: 15%
[17]
  viability, T/C: 6.94%
[18]
  viability, T/C: 11.1%
[19]
  viability, T/C: 38.7%
[20]
  viability, T/C: 33.9%
[21]
  viability, T/C: 28%
[22]
  viability, T/C: 8.72%
[23]
  viability, T/C: 4.36%
[24]
  viability, T/C: 7.59%
[25]
  viability, T/C: 20.9%
[26]
  viability, T/C: 21.9%
[27]
  viability, T/C: 16.6%
[28]
  viability, T/C: 5.37%
[29]
  viability, T/C: 5.01%
[30]
  viability, T/C: 1.08%
[31]
  viability, T/C: 11.8%
[32]
  viability, T/C: 13.1%
[33]
  viability, T/C: 8.25%
[34]
  viability, T/C: 4.84%
[35]
  viability, T/C: 4.83%
[36]
  viability, T/C: 1.9%
[37]
  viability, T/C: 10.5%
[38]
  viability, T/C: 11%
[39]
  viability, T/C: 8.33%
[40]
  viability, T/C: 2.49%
[41]
  viability, T/C: 4.32%
[42]
  viability, T/C: 1.07%

## CCN1CCN(Cc2ccc(Nc3ncc(F)c(-c4cc(F)c5nc(C)n(C(C)C)c5c4)n3)nc2)CC1 + C#Cc1c(F)ccc2cc(O)cc(-c3ncc4c(N5CC6CCC(C5)N6)nc(OCC56CCCN5CC(F)C6)nc4c3F)c12
Curve of first compound, second compound 0.0316 µM
  IC50: > 1000 nM
Curve of first compound, second compound 0.1 µM
  IC50: > 1000 nM
Curve of first compound, second compound 0.316 µM
  IC50: > 1000 nM
Curve of first compound, second compound 1 µM
  IC50: 316 nM
Curve of first compound, second compound 3.16 µM
  IC50: < 3.16 nM
Curve of first compound, second compound 10 µM
  IC50: < 3.16 nM
Second compound 0.0316 µM, first compound 0.00316 µM
  viability, T/C: 66.7%
Second compound 0.0316 µM, first compound 0.01 µM
  viability, T/C: 69.4%
Second compound 0.0316 µM, first compound 0.0316 µM
  viability, T/C: 57.5%
Second compound 0.0316 µM, first compound 0.1 µM
  viability, T/C: 73.8%
Second compound 0.0316 µM, first compound 0.316 µM
  viability, T/C: 71.5%
Second compound 0.0316 µM, first compound 1 µM
  viability, T/C: 72.8%
Second compound 0.1 µM, first compound 0.00316 µM
  viability, T/C: 46%
Second compound 0.1 µM, first compound 0.01 µM
  viability, T/C: 65.2%
Second compound 0.1 µM, first compound 0.0316 µM
  viability, T/C: 59.2%
Second compound 0.1 µM, first compound 0.1 µM
  viability, T/C: 61.2%
Second compound 0.1 µM, first compound 0.316 µM
  viability, T/C: 65.9%
Second compound 0.1 µM, first compound 1 µM
  viability, T/C: 66.6%
Second compound 0.316 µM, first compound 0.00316 µM
  viability, T/C: 61.2%
Second compound 0.316 µM, first compound 0.01 µM
  viability, T/C: 53.5%
Second compound 0.316 µM, first compound 0.0316 µM
  viability, T/C: 46.9%
Second compound 0.316 µM, first compound 0.1 µM
  viability, T/C: 52.9%
Second compound 0.316 µM, first compound 0.316 µM
  viability, T/C: 51.1%
Second compound 0.316 µM, first compound 1 µM
  viability, T/C: 67.9%
Second compound 1 µM, first compound 0.00316 µM
  viability, T/C: 58.5%
Second compound 1 µM, first compound 0.01 µM
  viability, T/C: 56.4%
Second compound 1 µM, first compound 0.0316 µM
  viability, T/C: 58%
Second compound 1 µM, first compound 0.1 µM
  viability, T/C: 45.5%
Second compound 1 µM, first compound 0.316 µM
  viability, T/C: 49.5%
Second compound 1 µM, first compound 1 µM
  viability, T/C: 56.1%
Second compound 3.16 µM, first compound 0.00316 µM
  viability, T/C: 50.2%
Second compound 3.16 µM, first compound 0.01 µM
  viability, T/C: 44.8%
Second compound 3.16 µM, first compound 0.0316 µM
  viability, T/C: 47.8%
Second compound 3.16 µM, first compound 0.1 µM
  viability, T/C: 42.6%
Second compound 3.16 µM, first compound 0.316 µM
  viability, T/C: 59.9%
Second compound 3.16 µM, first compound 1 µM
  viability, T/C: 51%
Second compound 10 µM, first compound 0.00316 µM
  viability, T/C: 39.7%
Second compound 10 µM, first compound 0.01 µM
  viability, T/C: 37.2%
Second compound 10 µM, first compound 0.0316 µM
  viability, T/C: 30.9%
Second compound 10 µM, first compound 0.1 µM
  viability, T/C: 31.4%
Second compound 10 µM, first compound 0.316 µM
  viability, T/C: 36%
Second compound 10 µM, first compound 1 µM
  viability, T/C: 24.7%

## CC1(O)CCCC1n1c(=O)c(C(F)F)cc2cnc(NC3CCN(S(C)(=O)=O)CC3)nc21 (stereo not drawn) + CCn1c(-c2cccnc2C(C)OC)c2c3cc(ccc31)N1CCOC(CC(NC(=O)C(C(C)C)N(C)C(=O)C3(F)CCN(C(=O)C#CC(C)(C)N(C)C)CC3)C(=O)N3CCCC(N3)C(=O)OCC(C)(C)C2)C1
[1]
  IC50: 4900 nM
[2]
  IC50: 5090 nM
[3]
  IC50: 4910 nM
[4]
  IC50: 4990 nM
[5]
  IC50: 4430 nM
[6]
  IC50: 3760 nM
[7]
  viability, T/C: 68.5%
[8]
  viability, T/C: 66.1%
[9]
  viability, T/C: 61.6%
[10]
  viability, T/C: 59.4%
[11]
  viability, T/C: 103%
[12]
  viability, T/C: 14.8%
[13]
  viability, T/C: 89.5%
[14]
  viability, T/C: 67.8%
[15]
  viability, T/C: 49.5%
[16]
  viability, T/C: 82.7%
[17]
  viability, T/C: 89.2%
[18]
  viability, T/C: 13.5%
[19]
  viability, T/C: 88.1%
[20]
  viability, T/C: 71.1%
[21]
  viability, T/C: 60.2%
[22]
  viability, T/C: 62.1%
[23]
  viability, T/C: 93.5%
[24]
  viability, T/C: 9.48%
[25]
  viability, T/C: 89.7%
[26]
  viability, T/C: 77.1%
[27]
  viability, T/C: 47.7%
[28]
  viability, T/C: 76.1%
[29]
  viability, T/C: 78.9%
[30]
  viability, T/C: 13.6%
[31]
  viability, T/C: 67.6%
[32]
  viability, T/C: 61.1%
[33]
  viability, T/C: 47.3%
[34]
  viability, T/C: 63.1%
[35]
  viability, T/C: 90.5%
[36]
  viability, T/C: 11.6%
[37]
  viability, T/C: 60.8%
[38]
  viability, T/C: 37.9%
[39]
  viability, T/C: 45.5%
[40]
  viability, T/C: 58%
[41]
  viability, T/C: 88.2%
[42]
  viability, T/C: 9.67%

## C=CC(=O)N1CCN(c2nc(OCC3CCCN3C)nc3c(F)c(-c4nc(N)cc(C)c4C(F)(F)F)c(Cl)cc23)C(C)C1 (stereo not drawn)
Compound alone, run of 06/10/2024
  IC50: > 1000 nM
Curve of compound
  IC50: > 1000 nM
